From ChEMBL document CHEMBL1201862, “PubChem BioAssay data set” (2004)
Several values for one entry are separate records, joined by “and”; a condition that tells them apart may be missing. Equal values may be shown once. Activity calls are given as the source filed them.

Tests used:
Protein skinhead-1 = molecular target: T1, Protein skinhead-1 (Caenorhabditis elegans, UniProt P34707); format: functional
T1 sequence (P34707 whole entry): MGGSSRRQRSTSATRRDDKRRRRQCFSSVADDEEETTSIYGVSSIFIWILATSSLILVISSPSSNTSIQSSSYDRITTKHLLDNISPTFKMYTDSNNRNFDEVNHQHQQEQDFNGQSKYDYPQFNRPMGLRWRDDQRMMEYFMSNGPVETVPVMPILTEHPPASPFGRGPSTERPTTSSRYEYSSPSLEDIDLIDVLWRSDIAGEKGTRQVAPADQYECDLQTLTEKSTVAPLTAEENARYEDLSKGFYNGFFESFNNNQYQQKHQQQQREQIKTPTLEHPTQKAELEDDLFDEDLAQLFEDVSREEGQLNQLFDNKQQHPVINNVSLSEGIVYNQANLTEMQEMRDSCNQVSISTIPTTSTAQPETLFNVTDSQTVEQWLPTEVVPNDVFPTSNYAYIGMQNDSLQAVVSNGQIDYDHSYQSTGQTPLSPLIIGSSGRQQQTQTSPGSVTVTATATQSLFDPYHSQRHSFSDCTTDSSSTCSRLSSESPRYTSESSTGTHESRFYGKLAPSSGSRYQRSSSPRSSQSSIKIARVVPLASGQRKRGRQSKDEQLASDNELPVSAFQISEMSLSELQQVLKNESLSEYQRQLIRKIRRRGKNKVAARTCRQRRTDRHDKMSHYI

cells = format: functional
[1] = THP-1 cell cytotoxicity, dose response, cytotoxicity control for non-replicating M. tuberculosis project (AID 489025); format: functional
[2] = Vero E6 cell cytotoxicity, dose response, cytotoxicity control for non-replicating M. tuberculosis project, secondary assay (AID 492998); format: functional, VeroE6; details: Vero C1008
[3] = molecular target: Dual specificity tyrosine-phosphorylation-regulated kinase 1A (Rattus norvegicus, UniProt Q63470); format: biochemical, Homo sapiens
HEK293 [4] = assay: cells; format: functional, cell-based; details: Homo sapiens
HEK293 [5] = assay: cells; format: functional, cell-based; details: Homo sapiens; remark: listed apart in the source
HEK293 [6] = assay: inhibition of NOD1-driven NF-kB reporter – cell-based, luminescence, uHTS, primary screen (AID 1578); format: functional; details: Homo sapiens
[7] = molecular target: Nucleotide-binding oligomerization domain-containing protein 2 (Homo sapiens, UniProt Q9HC29); assay: inhibition of NOD2-driven NF-kB reporter – cell-based, luminescence, uHTS, HEK293 (AID 1566); format: functional
HEK293 [8] = assay: NOD2 signaling inhibitors in MDP-stimulated cells, cell-based, uHTS, luminescence (AID 2001); format: functional; details: Homo sapiens
HEK293 [9] = assay: cells; format: functional, cell-based; details: Homo sapiens; remark: listed apart in the source
[10] = molecular target: Alkaline phosphatase, placental type (Homo sapiens, UniProt P05187); assay: human placental alkaline phosphatase inhibition – biochemical, luminescence, confirmation (AID 1512); format: functional
[11] = molecular target: T2, Alkaline phosphatase, tissue-nonspecific isozyme (Homo sapiens, UniProt P05186); assay: potency against alkaline phosphatase TNAP – biochemical, luminescent, dose response, SAR follow-up (AID 1056)
T2 sequence (P05186 whole entry): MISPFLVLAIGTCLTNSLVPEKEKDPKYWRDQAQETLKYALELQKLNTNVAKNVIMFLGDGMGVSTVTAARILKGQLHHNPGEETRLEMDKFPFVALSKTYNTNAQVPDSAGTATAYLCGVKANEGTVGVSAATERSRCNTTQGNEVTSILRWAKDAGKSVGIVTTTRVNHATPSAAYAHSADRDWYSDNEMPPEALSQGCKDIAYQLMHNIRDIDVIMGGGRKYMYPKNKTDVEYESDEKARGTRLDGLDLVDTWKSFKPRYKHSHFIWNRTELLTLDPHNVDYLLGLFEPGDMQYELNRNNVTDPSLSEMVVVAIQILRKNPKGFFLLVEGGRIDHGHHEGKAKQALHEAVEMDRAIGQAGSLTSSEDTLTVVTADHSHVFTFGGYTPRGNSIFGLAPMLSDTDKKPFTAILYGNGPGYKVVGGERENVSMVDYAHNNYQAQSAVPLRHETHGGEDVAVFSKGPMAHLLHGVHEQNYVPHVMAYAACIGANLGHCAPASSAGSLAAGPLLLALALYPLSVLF

Cytochrome P450 2C19 = Cytochrome P450 2C19 (Homo sapiens, UniProt P33261); assay: Cytochrome panel assay with activity outcomes. Panel member name: p450-cyp2c19 Compounds with AC50 equal or less than 10 uM are considered active; format: functional; details: read-out: AC50
[12] = molecular target: T2, Alkaline phosphatase, tissue-nonspecific isozyme; assay: TNAP enzyme inhibition by screening hits, dose response, selectivity assay for mouse IAP inhibitor project, biochemical, human TNAP, uHTS hits (AID 488906); format: functional
Cytochrome P450 3A4 [13] = molecular target: T3, Cytochrome P450 3A4 (Homo sapiens, UniProt P08684)
Caspase-6 = molecular target: T4, Caspase-6 (Homo sapiens, UniProt P55212); assay: inhibition of CASP6 peptide cleavage – biochemical, VEID-R110 fluorescence, cherry-pick, dose response (AID 720632)
T4 sequence (P55212 whole entry): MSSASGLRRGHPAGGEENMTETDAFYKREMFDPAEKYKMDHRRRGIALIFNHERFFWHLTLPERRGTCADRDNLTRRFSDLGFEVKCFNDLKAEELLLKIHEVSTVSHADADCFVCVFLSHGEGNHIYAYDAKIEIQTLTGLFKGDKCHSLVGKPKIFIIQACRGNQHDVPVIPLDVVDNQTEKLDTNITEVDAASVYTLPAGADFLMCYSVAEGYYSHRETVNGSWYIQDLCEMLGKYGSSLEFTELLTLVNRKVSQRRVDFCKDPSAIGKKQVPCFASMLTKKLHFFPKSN

[14] = molecular target: Intestinal-type alkaline phosphatase (Mus musculus, UniProt P24822); assay: PubChem AID 488785; format: functional
[15] = molecular target: DNA dC->dU-editing enzyme APOBEC-3G (Homo sapiens, UniProt Q9HC16); assay: Dose Response confirmation of small molecule APOBEC3G DNA Deaminase Inhibitors via a fluorescence-based single-stranded DNA deaminase assay. [Related pubchem assays (depositor defined):AID493012, AID493028]; format: functional
Cytochrome P450 3A4 [16] = molecular target: T3, Cytochrome P450 3A4; details: Potency

Alkaline phosphatase, placental type, sequence (P05187 whole entry): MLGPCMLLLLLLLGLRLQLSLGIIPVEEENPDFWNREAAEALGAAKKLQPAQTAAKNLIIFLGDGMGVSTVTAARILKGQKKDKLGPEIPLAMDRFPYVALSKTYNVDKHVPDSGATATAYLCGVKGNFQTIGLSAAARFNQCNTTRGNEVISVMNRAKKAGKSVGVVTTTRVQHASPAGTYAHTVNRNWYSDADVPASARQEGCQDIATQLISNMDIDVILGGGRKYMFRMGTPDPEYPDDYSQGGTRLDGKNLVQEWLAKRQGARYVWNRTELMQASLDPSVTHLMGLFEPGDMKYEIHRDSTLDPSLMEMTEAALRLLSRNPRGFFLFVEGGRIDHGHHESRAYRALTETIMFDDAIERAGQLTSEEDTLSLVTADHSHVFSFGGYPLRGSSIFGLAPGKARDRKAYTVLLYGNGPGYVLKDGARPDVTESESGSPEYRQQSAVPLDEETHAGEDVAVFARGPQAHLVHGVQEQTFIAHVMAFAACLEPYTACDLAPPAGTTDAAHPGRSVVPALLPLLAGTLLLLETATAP
T3 sequence (P08684 whole entry): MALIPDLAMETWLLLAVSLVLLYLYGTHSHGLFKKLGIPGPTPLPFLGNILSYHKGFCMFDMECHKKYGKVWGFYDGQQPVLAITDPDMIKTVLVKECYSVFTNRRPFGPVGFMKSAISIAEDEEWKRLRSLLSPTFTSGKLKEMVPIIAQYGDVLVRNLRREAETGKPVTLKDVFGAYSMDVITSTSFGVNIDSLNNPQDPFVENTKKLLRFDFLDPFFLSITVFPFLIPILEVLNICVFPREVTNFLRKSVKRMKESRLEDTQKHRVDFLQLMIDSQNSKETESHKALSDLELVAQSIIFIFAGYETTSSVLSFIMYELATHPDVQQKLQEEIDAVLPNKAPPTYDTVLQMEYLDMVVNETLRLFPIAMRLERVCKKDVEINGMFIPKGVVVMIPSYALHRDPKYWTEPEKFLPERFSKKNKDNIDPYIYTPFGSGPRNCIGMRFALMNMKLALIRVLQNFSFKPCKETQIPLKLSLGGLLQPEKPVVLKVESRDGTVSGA
Cytochrome P450 2C19, sequence (P33261 whole entry): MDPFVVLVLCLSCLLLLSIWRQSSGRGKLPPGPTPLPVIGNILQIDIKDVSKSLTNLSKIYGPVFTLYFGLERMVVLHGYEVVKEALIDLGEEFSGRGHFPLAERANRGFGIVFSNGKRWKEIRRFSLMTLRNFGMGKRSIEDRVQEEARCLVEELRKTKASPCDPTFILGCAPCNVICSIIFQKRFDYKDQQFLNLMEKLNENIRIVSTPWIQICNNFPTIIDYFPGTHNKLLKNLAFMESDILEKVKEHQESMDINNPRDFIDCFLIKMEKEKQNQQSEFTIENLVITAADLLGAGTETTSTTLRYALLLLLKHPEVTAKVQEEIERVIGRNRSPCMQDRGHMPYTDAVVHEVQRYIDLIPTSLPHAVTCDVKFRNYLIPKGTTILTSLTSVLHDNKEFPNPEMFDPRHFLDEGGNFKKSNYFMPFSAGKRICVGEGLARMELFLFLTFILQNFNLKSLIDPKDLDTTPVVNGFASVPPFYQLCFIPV
Nucleotide-binding oligomerization domain-containing protein 2, sequence (Q9HC29 whole entry, the tested form may be a part): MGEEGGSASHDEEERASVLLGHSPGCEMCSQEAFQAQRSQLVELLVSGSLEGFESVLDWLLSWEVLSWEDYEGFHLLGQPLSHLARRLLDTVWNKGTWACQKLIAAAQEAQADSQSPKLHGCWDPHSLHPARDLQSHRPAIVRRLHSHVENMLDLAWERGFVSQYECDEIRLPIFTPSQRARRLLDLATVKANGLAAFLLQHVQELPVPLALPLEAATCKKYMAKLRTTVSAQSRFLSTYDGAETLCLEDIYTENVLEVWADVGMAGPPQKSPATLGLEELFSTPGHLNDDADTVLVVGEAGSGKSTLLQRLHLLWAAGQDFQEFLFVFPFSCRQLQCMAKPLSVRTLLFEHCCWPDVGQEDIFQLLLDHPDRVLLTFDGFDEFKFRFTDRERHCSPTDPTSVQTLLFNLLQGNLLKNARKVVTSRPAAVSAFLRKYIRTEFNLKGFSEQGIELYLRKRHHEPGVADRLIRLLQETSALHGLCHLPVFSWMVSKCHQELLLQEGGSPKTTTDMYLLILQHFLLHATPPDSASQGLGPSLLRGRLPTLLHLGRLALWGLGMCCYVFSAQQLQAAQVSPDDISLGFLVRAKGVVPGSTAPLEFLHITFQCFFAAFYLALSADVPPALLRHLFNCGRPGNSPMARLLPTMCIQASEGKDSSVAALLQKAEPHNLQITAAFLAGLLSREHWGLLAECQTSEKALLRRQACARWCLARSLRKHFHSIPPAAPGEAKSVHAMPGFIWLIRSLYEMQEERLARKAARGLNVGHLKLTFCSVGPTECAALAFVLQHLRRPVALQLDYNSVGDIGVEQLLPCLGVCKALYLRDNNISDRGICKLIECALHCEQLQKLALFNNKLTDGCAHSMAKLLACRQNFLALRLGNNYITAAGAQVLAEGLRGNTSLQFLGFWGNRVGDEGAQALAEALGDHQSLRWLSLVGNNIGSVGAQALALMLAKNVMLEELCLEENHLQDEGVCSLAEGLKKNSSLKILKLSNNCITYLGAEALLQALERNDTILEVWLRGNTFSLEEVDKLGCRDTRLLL
Intestinal-type alkaline phosphatase, sequence (P24822 whole entry): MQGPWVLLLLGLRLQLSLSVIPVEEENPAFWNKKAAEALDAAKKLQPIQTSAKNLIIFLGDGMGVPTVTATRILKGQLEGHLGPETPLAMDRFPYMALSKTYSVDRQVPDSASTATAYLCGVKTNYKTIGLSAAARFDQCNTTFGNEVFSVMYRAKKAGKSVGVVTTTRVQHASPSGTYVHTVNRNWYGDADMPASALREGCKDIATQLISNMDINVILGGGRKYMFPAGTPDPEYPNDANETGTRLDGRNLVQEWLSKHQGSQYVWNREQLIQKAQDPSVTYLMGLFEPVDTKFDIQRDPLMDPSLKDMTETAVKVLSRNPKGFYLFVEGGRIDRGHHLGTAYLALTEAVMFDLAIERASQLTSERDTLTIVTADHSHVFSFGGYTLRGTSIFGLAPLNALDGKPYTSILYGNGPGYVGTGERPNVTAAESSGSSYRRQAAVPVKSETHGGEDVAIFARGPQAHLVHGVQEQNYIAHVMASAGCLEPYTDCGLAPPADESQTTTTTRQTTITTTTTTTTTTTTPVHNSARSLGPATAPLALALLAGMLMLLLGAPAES
DNA dC->dU-editing enzyme APOBEC-3G, sequence (Q9HC16 whole entry): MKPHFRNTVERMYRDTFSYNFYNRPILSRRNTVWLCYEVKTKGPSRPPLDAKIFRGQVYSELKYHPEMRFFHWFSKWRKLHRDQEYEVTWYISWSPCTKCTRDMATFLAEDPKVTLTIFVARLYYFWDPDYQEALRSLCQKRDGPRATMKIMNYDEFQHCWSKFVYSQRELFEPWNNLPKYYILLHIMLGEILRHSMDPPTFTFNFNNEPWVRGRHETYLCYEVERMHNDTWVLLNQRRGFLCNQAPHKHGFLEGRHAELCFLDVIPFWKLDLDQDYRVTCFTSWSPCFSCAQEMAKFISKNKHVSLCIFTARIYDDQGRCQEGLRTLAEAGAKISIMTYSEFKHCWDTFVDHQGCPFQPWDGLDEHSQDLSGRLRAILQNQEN

For O=C(Nc1nc(-c2cc(F)ccc2F)cs1)c1ccccn1, which IC50 (Protein skinhead-1) is on record?
Its IC50 is > 100 µM (inactive).

And the IC50 (cells)?
Its IC50 is 830 nM (active).

And the CC50 [1]?
The CC50 was 29.4 µM (active).

And the CC50 [2]?
Its CC50 is > 20 µM (active).

Which AC50 [3] does the source give for CC(=O)NC12CC3CC(C1)CC(C(=O)Nc1nc4ccc(F)cc4s1)(C3)C2 here?
The AC50 was 2.64 µM (active).

What does the source list for COc1ccc(-n2c(C)c([N+](=O)[O-])c3ccc(O)c(CN4CCCCC4)c32)cc1?
IC50 (HEK293 [4]): > 20 µM (inactive); IC50 (HEK293 [5]): > 20 µM (inactive); EC50 (HEK293 [6]): 2.77 µM (active); EC50 [7]: > 20 µM (inactive); IC50 (HEK293 [8]): 2.39 µM (active); IC50 (HEK293 [9]): 2.1 µM (active)

Which IC50 [10] does the source give for CCCCN1C(=O)/C(=N\Nc2ccccc2OC)c2ccccc21 here?
The IC50 was 87.9 µM (active).

And the IC50 [11]?
The IC50 was 28.7 µM (active).

For Cc1cc(C(=O)NCCc2ccc(O)c(O)c2)c(C)o1, which IC50 [10] is on record?
Its IC50 is > 100 µM (inactive).

And the IC50 [11]?
The IC50 was > 100 µM (inactive).

With O=c1c(O)c(-c2cc(O)c(O)c(O)c2)oc2cc(O)cc(O)c12 [MYRICETIN] as the molecule, how does the AC50 (Cytochrome P450 2C19) read?
Its AC50 is 3.98 µM (inconclusive) and 20 µM (inconclusive).

What about the IC50 [12] of the same molecule?
Its IC50 is 33.2 µM (active).

And the AC50 (Cytochrome P450 3A4 [13])?
Its AC50 is 3.98 µM (inconclusive).

And the AC50 (Caspase-6)?
The AC50 was 461 nM (active).

What about the IC50 [14] of the same molecule?
Its IC50 is 12.5 µM (active).

What about the IC50 [15] of the same molecule?
Its IC50 is 2.39 µM (active).

And the AC50 (Cytochrome P450 3A4 [16])?
The AC50 was 25.1 µM (inconclusive).
